Reference: US20230141718A1, “METHODS OF TREATING GLIOBLASTOMA” (CELGENE QUANTICEL RESEARCH, INC., priority 2021, published 2023)

Columns and labels:
[1] = Safety (TRAEs/TEAEs), CC-90010-GBM-002 Parts A and B; type: in vivo
Source text: This was then followed by a break in treatment therapy, e.g., from 1 to up to 4 weeks. […] Adjuvant therapy cycles were repeated from 2 to 6 times. After adjuvant therapy, was a monotherapy treatment.
The demographics and characteristics of treated patients are described in the below table.

[2] = cited from earlier work
glioblastoma = settings: in vivo; cited from earlier work

## Cn1nnc2c(C(N)=O)ncn2c1=O [TMZ, 3,4-dihydro-3-methyl-4-oxoimidazo[5,1-d]-as-tetrazine-8-carboxamide, reference compound]
[1]; Part B arm A
  patients with TRAEs related to TMZ: 75%
  patients with nausea related to TMZ: 46%
  patients with thrombocytopenia related to TMZ: 46%
[1]; Part B arm B
  patients with TRAEs related to TMZ: 73%
  patients with thrombocytopenia related to TMZ: 40%

## C#Cc1cccc(Nc2ncnc3cc(OCCOC)c(OCCOC)cc23)c1 [erlotinib]
[2]; brain tumor tissue
  tissue:plasma ratio: 0.06-0.08

## COc1cc2ncnc(Nc3ccc(F)c(Cl)c3)c2cc1OCCCN1CCOCC1 [gefitinib]
glioblastoma
  antitumor activity in glioblastoma: neither lapatinib nor gefitinib have shown evidence of antitumor activity
[2]; glioblastoma tumor tissue
  median concentration in tumor tissue: 4100 ng/g
[2]; in vivo
  median concentration in plasma: 181 ng/mL

## CS(=O)(=O)CCNCc1ccc(-c2ccc3ncnc(Nc4ccc(OCc5cccc(F)c5)c(Cl)c4)c3c2)o1 [lapatinib]
glioblastoma
  antitumor activity in glioblastoma: neither lapatinib nor gefitinib have shown evidence of antitumor activity
[2]; brain tumor tissue
  tissue:plasma ratio, mean: 13.0

## O=C(c1cc(Cc2n[nH]c(=O)c3ccccc23)ccc1F)N1CCN(C(=O)C2CC2)CC1 [olaparib]
[2]; brain tumor tissue
  tissue:plasma ratio, mean: 0.25
